From patent US20140314676A1, “METHODS OF TREATMENT WITH DEFERIPRONE” (APOTEX TECHNOLOGIES INC., priority 2011, published 2014)
Entries after “also recorded” stand apart in the source; their conditions may differ.

Columns and labels:
[1] = test system: porcine model of myocardial infarction; assay: Hemorrhagic myocardial infarction in porcine model, remodeling monitored by CMR (Example 3); assay type: in vivo
Description: A quantitative study was done to investigate the effect of the deferiprone (DFP) on the hemorrhagic byproducts in tissue in a porcine model of myocardial infarction, and to monitor remodeling by cardiovascular magnetic resonance (CMR).
The study involved two groups of animals that were subjected to a 90 min balloon occlusion of the left anterior descending artery (LAD) followed by reperfusion—untreated (N=2) and DFP treated (N=2). DFP was administered (orally) a few hours (about 1-2 hours) before the procedure (pre-loading) and treatment was continued with a daily dose of 100 mg/kg. Imaging was performed on a 3T MRI scanner (MR 750, GE Healthcare) pre-AMI (healthy), day 2, week 1, week 2 and week 4 post-AMI. Edema was evaluated by T2 quantification using a T2-prepared spiral sequence and hemorrhage was identified by T2* using a multi-echo gradient-echo acquisition. Infarct assessment was performed by delayed hyperenhancement (DHE) using an IR-GRE sequence.

[2] = test system: Langendorff heart preparation; details: constant deferiprone infusion of 50 μM, ex vivo; cited from earlier work
[3] = test system: porcine model of myocardial infarction; assay: Porcine model of myocardial infarction (90 min LAD occlusion, reperfusion), pilot study monitored by MRI; assay type: in vivo; details: for Ejection fraction (EF) / Vasodilatory dysfunction (remote myocardium T2) / Inflammation or edema (T2) / Ventricular volume (end-diastolic and end-systolic volumes): pigs N=2, oral 100 mg/kg daily; for Inflammation or edema (T2): infarct zone; for Ventricular volume (end-diastolic and end-systolic volumes): up to 4 weeks; for Hemorrhage (from T2* image): pigs N=2, oral pre-loading then 100 mg/kg daily, MRI day 2 to week 4
Description: Post-infarct remodeling is a complex process with various pathophysiological changes occurring simultaneously (19) whose inter-dependence has not been completely understood in vivo. An initial study was performed to assess evolution of: 1) edema (T2); 2) hemorrhage (T2*); 3) cardiac function; 4) infarct/MVO size and 5) vasodilatory function in a porcine model of myocardial infarction. The left anterior descending artery (LAD) was occluded for 90 min followed by reperfusion; this model consistently produced anteroseptal transmural infarcts characterized by MVO. Pattern of progression of edema, hemorrhage and infarct/MVO was apparent on T2-, T2*-maps and contrast-enhanced (CE) images as shown in a representative animal (FIG. 1). Post-infarct LV remodeling was monitored by observing the cumulative time course of quantitative MRI parameters (FIG. 2). […] Vasodilator function (or perfusion reserve) was evaluated with T2-based Blood-oxygen-level-dependent (BOLD) imaging using a pharmacological vasodilator (FIG. 4). […] The failure of remote vasodilatory function to regain control levels in the chronic phase of AMI potentially served as a predictor of subsequent adverse LV remodeling. […] Importantly, the evolution of MRI parameters was well correlated with histological features, similar to patterns seen in humans (24); this justified using a large animal model, e.g., porcine, for translation to the clinic. Two papers based on this work were published in MRM (32, 76).
Excess tissue iron accumulation can be lethal as free iron is toxic in nature. It has been speculated that iron chelation may be beneficial in acute coronary syndromes and that early treatment can limit ischemia-reperfusion injury and also reduce infarct size (83, 84). However, the role of iron chelation in hemorrhagic infarction has not yet been explored. In the present example, the cardioprotective properties of the iron chelating agent deferiprone (DFP) were explored in a porcine model of myocardial infarction. Deferiprone offered several advantages in that it is a very small molecule, both hydrophilic and lipophilic and highly membrane permeable; it can readily enter mitochondria and may access intracellular labile iron. In a pilot study, DFP was administered (orally) to pigs (N=2) a few hours before a 90 min LAD occlusion (pre-loading), and treatment was continued with a daily dose of 100 mg/kg (85). Animals were then monitored with a comprehensive MRI exam from day 2 to week 4. […] The result shown in FIG. 14 compared to FIG. 1 show the neutralizing capacity of DFP.

porcine hearts [4] = assay: Artificially induced hemorrhage in porcine hearts by intracoronary injection of collagenase after 8 min ischemia; assay type: in vivo, Yorkshire pigs; details: for Epicardial and intramyocardial hemorrhage: sacrifice at 24 hrs
Description: (§1) 21 Yorkshire pigs (19-31 kg) were included in the study and 7-9 ml phosphate-buffered solution containing collagenase was injected using an over-the-wire angioplasty balloon catheter that was advanced to mid LAD after 2nd diagonal branch; balloon inflation was maintained for 8 min (ischemia). Six doses (250, 600, 800, 1200, 1600, and 3200 mcg) of collagenase were administered in equally divided groups; there was no mortality attributable to collagenase infusion. Animals were sacrificed at 24 hrs and hearts were explanted for histological analysis. […] After establishing this model, a pilot study was initiated to artificially induce hemorrhage in one animal subjected to a 45 min LAD occlusion, which is inherently non-hemorrhagic. Collagenase was injected immediately after balloon deflation i.e. during reperfusion at an intermediate dose of 1000 mcg. […] This was unlike the untreated 45 min infarcts studied. Currently, the causality between hemorrhage and MVO is unknown. The blood spilt in the interstitium might have compressed the microvasculature that was already vulnerable due to the initial ischemic insult; in other words, hemorrhage may have created the MVO.

porcine hearts [5] = assay: Collagenase injection during reperfusion after 45 min LAD occlusion, MRI at day 2; assay type: in vivo, pig; details: 1000 mcg during reperfusion, day 2 post-AMI, one animal
Description: as §1

[6] = DFP treated N=2, 100 mg/kg daily
[7] = 90 min LAD occlusion, listed as DFP, 100 mg/kg

Cc1c(O)c(=O)ccn1C [deferiprone]
Ejection fraction (EF) [1, 6]: depressed by week 4 | End-diastolic and end-systolic volumes [1, 6]: relatively unchanged | Inflammation and edema (T2) [1, 6]: substantially reduced by week 4 | Microvascular obstruction (MVO) ([1]; DFP treated N=2, 100 mg/kg daily, seen on day 2): partially resolved by week 1 | Hemorrhage (as indicated by T2* image) ([1]; DFP treated N=2, oral pre-loading then 100 mg/kg daily, 90 min LAD occlusion, listed as DFP): observed only on day 2 and by week 1 it had completely resolved | Free radical activity [2]: reduction | Ejection fraction (EF) ([3]; 90 min LAD occlusion): reduced gradually | Vasodilatory dysfunction (remote myocardium T2) ([3]; 90 min LAD occlusion): impaired vasodilatory function only at day 2 | Inflammation or edema (T2) ([3]; 90 min LAD occlusion, 100 mg/kg): substantially subsided at week 4; also recorded: substantially subsided beyond week 2 | Inflammation or edema (T2) [3, 7]: substantially reduced by week 4 | Ventricular volume (end-diastolic and end-systolic volumes) ([3]; 90 min LAD occlusion): Relatively unchanged | Ventricular volume (end-diastolic and end-systolic volumes) [3, 7]: relatively unchanged | Ejection fraction (EF) [3, 7]: gradually depressed by week 4 | Vasodilatory dysfunction (remote myocardium T2) [3, 7]: observed only at day 2 | Hemorrhage (from T2* image) ([3]; 90 min LAD occlusion): observed only on day 2 but resolved by week 1; also recorded: only observed on day 2, which later resolved | Hemorrhage (from T2* image) ([3]; 90 min LAD occlusion, listed as DFP): observed only on day 2 and by week 1 it had completely resolved | Side effects ([3]; pigs, oral 100 mg/kg daily, throughout the 4 weeks of observation): No side effects | Microvascular obstruction (MVO) ([3]; representative animal, 90 min LAD occlusion, seen on day 2): partially resolved by week 1

collagenase
Mortality attributable to collagenase infusion (porcine hearts [4]; 250-3200 mcg intracoronary, 21 pigs): no mortality | Epicardial and intramyocardial hemorrhage (porcine hearts [4]; 800-1600 mcg intracoronary): mild-moderate | Epicardial and intramyocardial hemorrhage (porcine hearts [4]; 3200 mcg intracoronary): severe | Infarction (histology) (porcine hearts [4]; intracoronary collagenase after 8 min ischemia): No infarction | Dose resulting in hemorrhage on explanted hearts (porcine hearts [4]; intracoronary, after 8 min ischemic episode): > 800 µg | Epicardial and intramyocardial hemorrhage (porcine hearts [4]; up to 600 mcg intracoronary): none or mild focal | Hemorrhage on T2*-weighted images (porcine hearts [5]): Signal void | MVO on DHE images (porcine hearts [5]): corresponded with an MVO | Hemorrhage on T2*-weighted images (porcine hearts [5]; listed as Collagenase): signal void | MVO on DHE images (porcine hearts [5]; listed as Collagenase): presence of MVO
